Results: patent US11407736B2 (priority 2019, dated 2022)
Where two headings read alike, the source gives them in different places.

Legend:
RIPK1 = RIPK1 (Homo sapiens (Human), UniProt Q13546); assay: RIPK1 ADP-Glo biochemical kinase assay
Description: The final reaction volume was 5.0ul.
Adding 5 μl of ADP-Glo™ terminated the reaction.

L929 cells = assay: L929 cell necroptosis assay (TNFa + zVAD, CellTiter-Glo); format: cell-based, murine; conditions: TNFa + zVAD, read-out: L929-CTG-recovery, L929, TNFa + zVAD (IC50)
Summary of the method: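 Necroptosis was read as CellTiter-Glo luminescence 18 hours after TNFa stimulation at 37° C, 5% CO2. Prior to that, L929 cells (10K/well, plated 18 h) received fresh medium with 40 uM zVAD-fmk plus 4-fold serially diluted compound.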

U937 cells = assay: U937 cell necroptosis assay (TNFa + zVAD, CellTiter-Glo); format: cell-based, human; conditions: TNFa + zVAD, read-out: U937 Zvad TNF CTG Recovery, U937, TNFa + zVAD (IC50)
Summary of the method: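 Necroptosis was induced with TNFa at 2 ng/mL final for 18 h at 37 °C, following 1 h compound pre-incubation in the presence of zVAD-fmk (60 uM for U937 plating medium, 40 uM for L929 medium). Luminescent CellTiter-Glo signal gave relative cell survival.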

[1] = read-out: RIPK1 ADP-Glo Kinase (IC50)
[2] = Homo sapiens, U-937, U937 cells

RIPK1, sequence (Q13546 whole entry, species assumed): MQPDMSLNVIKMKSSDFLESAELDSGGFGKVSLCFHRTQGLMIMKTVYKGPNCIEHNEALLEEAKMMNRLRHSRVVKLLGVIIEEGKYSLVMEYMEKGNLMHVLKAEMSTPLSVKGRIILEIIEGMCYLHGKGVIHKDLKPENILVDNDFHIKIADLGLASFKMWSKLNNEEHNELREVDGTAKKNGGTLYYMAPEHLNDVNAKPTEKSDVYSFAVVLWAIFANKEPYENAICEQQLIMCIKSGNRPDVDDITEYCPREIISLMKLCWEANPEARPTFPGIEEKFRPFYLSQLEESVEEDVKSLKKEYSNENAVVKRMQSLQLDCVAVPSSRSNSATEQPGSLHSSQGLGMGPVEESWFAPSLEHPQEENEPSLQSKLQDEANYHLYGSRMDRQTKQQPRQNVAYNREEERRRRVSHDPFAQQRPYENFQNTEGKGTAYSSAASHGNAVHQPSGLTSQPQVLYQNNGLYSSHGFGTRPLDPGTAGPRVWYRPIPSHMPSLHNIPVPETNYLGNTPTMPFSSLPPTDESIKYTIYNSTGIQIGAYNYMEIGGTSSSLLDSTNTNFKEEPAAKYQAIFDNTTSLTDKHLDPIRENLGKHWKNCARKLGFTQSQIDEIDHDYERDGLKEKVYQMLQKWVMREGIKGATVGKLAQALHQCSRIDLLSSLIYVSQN

SMILES	IC50 (RIPK1; [1]) [nM]	IC50 (L929 cells; Mus musculus, L929, L929 cells) [nM]	IC50 (U937 cells; [2]) [nM]	IC50 (L929 cells; L929 cells) [nM]	IC50 (U937 cells; U937 cells) [nM]	IC50 (RIPK1) [nM]
CCN1C(=O)[C@@H](NC(=O)c2n[nH]c(Cc3ccccc3)n2)COc2ccc(C#CC(C)(C)O)cc21 [Compound I-91, (S)-5-benzyl-N-(5-ethyl-7-(3-hydroxy-3-methylbut-1-yn-1-yl)-4-oxo-2,3,4,5-tetrahydrobenzo[b][1,4]oxazepin-3-yl)-1H-1,2,4-triazole-3-carboxamide]	388	3.7	19.8			
CCN1C(=O)[C@@H](NC(=O)c2n[nH]c(Cc3cccc(F)c3)n2)COc2ccc(C#CC(C)(C)O)cc21 [Compound I-92, (S)—N-(5-ethyl-7-(3-hydroxy-3-methylbut-1-yn-1-yl)-4-oxo-2,3,4,5-tetrahydrobenzo[b][1,4]oxazepin-3-yl)-5-(3-fluorobenzyl)-1H-1,2,4-triazole-3-carboxamide]	932	430	4840			
C=C(C)C#Cc1ccc2c(c1)NC(=O)[C@@H](NC(=O)c1n[nH]c(Cc3ccccc3)n1)CO2 [Compound I-93, (S)-5-benzyl-N-(7-(3-methylbut-3-en-1-yn-1-yl)-4-oxo-2,3,4,5-tetrahydrobenzo[b][1,4]oxazepin-3-yl)-1H-1,2,4-triazole-3-carboxamide]	64.1	921	3240			
CN1C(=O)[C@@H](NC(=O)c2n[nH]c(Cc3ccccc3)n2)COc2ccc(C#CCN3CCCC3)cc21 [Compound I-95, (S)-5-benzyl-N-(5-methyl-4-oxo-7-(3-(pyrrolidin-1-yl)prop-1-yn-1-yl)-2,3,4,5-tetrahydrobenzo[b][1,4]oxazepin-3-yl)-1H-1,2,4-triazole-3-carboxamide]	27.1	0.5	1.4			
CN1C(=O)[C@@H](NC(=O)c2n[nH]c(Cc3ccccc3)n2)COc2ccc(C#CCN3CCOCC3)cc21 [Compound I-96, (S)-5-benzyl-N-(5-methyl-7-(3-morpholinoprop-1-yn-1-yl)-4-oxo-2,3,4,5-tetrahydrobenzo[b][1,4]oxazepin-3-yl)-1H-1,2,4-triazole-3-carboxamide]	31.7	0.8	3.1			
CN1C(=O)[C@@H](NC(=O)c2n[nH]c(Cc3ccccc3)n2)COc2ccc(C#C[Si](C)(C)C)cc21 [Compound I-97, (S)-5-benzyl-N-(5-methyl-4-oxo-7-((trimethylsilyl)ethynyl)-2,3,4,5-drobenzo[b][1,4]oxazepin-3-yl)-1H-1,2,4-triazole-3-carboxamide]	85.8			0.9	1.7	
CN1C(=O)[C@@H](NC(=O)c2cc(Oc3ccccc3)ccn2)COc2ccc(C#CC3(O)CCCC3)cc21 [Compound I-98, (S)—N-(7-((1-hydroxycyclopentyl)ethynyl)-5-methyl-4-oxo-2,3,4,5-tetrahydrobenzo[b][1,4]oxazepin-3-yl)-4-phenoxypicolinamide]		36.8	1.6			29.6
C=C(C)C#Cc1ccc2c(c1)N(C)C(=O)[C@@H](NC(=O)c1cc(Oc3ccccc3)ccn1)CO2 [Compound I-99, (S)—N-(5-methyl-7-(3-methylbut-3-en-1-yn-1-yl)-4-oxo-2,3,4,5-tetrahydrobenzo[b][1,4]oxazepin-3-yl)-4-phenoxypicolinamide]		116	1.3			126
CN1C(=O)[C@@H](NC(=O)c2cc(Oc3ccc(F)cc3)ccn2)COc2ccc(C#CC(C)(C)O)cc21 [Compound I-100, (S)-4-(4-fluorophenoxy)-N-(7-(3-hydroxy-3-methylbut-1-yn-1-yl)-5-methyl-4-oxo-2,3,4,5-tetrahydrobenzo[b][1,4]oxazepin-3-yl)picolinamide]	39.2	263	8.3			
CN1C(=O)[C@@H](NC(=O)c2cc(Oc3ccc(F)cc3)ccn2)COc2ccc(C#CC(C)(C)C)cc21 [Compound I-101, (S)—N-(7-(3,3-dimethylbut-1-yn-1-yl)-5-methyl-4-oxo-2,3,4,5-tetrahydrobenzo[b][1,4]oxazepin-3-yl)-4-(4-fluorophenoxy)picolinamide]	133	668	36.3			
